Source: patent US20240352533A1, “Monocarboxylic Acid Transporter 4 as a Biomarker for Hypoxia Driven Tumor Growth and Treatment” (NantBio, Inc., priority 2023, published 2024)

Test system: Ishikawa cells
Assay: Tumorsphere growth with and without Mct-4 overexpression
Assay type: cell-based
Conditions: 72 hr
Description: After 18 hr, 10× drug was added, and after 72 hr, plates were imaged.

`Cc1cc(-c2nc(-c3ccc(OC(F)(F)F)cc3)no2)nn1Cc1ccnc(N2CCN(C3CC3)CC2)c1` [Bay87-2243] was tested, and the tumorsphere growth (Ishikawa cells, 384-well round bottom) was “tumorsphere growth inhibition” and the “tumorsphere growth inhibition under Mct-4 overexpression” value (Mct-4 overexpressing Ishikawa cells) was “Mct-4 overexpression reverses tumorsphere growth inhibition”.
